Results: patent US11291630B2, “Gelling compositions for treating malignant tumours and/or preventing tumour recurrence” (Centre National de la Recherche Scientifique (CNRS), priority 2015, dated 2022)

Experiment: Measurement of gelation temperature by DSC and rheology (Example 1)
Type: physicochemical
Conditions: addition of 0.5% 5-FU to gel P407/P188/Alginate (20/2/1) (FIG. 2)
Protocol: The gelation temperature (Tgel) was determined by Differential Scanning calorimetry (DSC) and rheology.
By DSC: between 20-35 mg of the solution were sealed in aluminium pans and placed into the DSC instrument (DSC 1, Mettler Toledo). An empty aluminium pan (size: 40 μL) served as a reference sample. The instrument was equilibrated at 5° C. for 7 min prior to initiation of the scans. The sample was then heated to 40° C. at a heating rate of 5° C./min. Data analysis was performed with the software preinstalled in the instrument (STARe Software). The gelation temperature was determined as the small enthalpy change which was visible around at 10-12° C. above the big endothermic peak caused by micellization of the poloxamers, as already done in other studies (Nie et al, Int. J. Nanomedicine. 6 (2011) 151-166. doi:10.2147/IJN.S15057).
By rheology: a deformation was applied and varied between 0.01 to 100% at a fixed frequency of 1 Hz with a cone/plan mobile with an angle of 1°, a diameter of 50 mm and with a gap of 0.1 mm. The sample was left at room temperature for 1 hour, then approximately 750 μL was loaded on the pelletier plan which is submitted to a temperature increase. The viscoelastic moduli G′ and G″ are measured. The gelation temperature corresponds to the curve intersections.

increase of the gelation temperature: 2 °C
Compound: O=c1[nH]cc(F)c(=O)[nH]1 [Composition 5-FU, 5-Fluorouracil]
